Measurements reported in patent US20250230138A1, “COMPOUNDS HAVING A T-STRUCTURE FORMED BY AT LEAST FOUR CYCLES FOR USE IN THE TREATMENT OF CANCER AND OTHER INDICATIONS” (TheRas, Inc., priority 2022, published 2025).
Read-outs that look alike come from different tables or passages of the source.

Experiments:
[1] = biological target: Cys242 in human PIK3CA (157-299) (Homo sapiens (Human), UniProt P42336); experiment: Covalent modification assay using MALDI-TOF MS; type: biochemical; settings: 4 h reaction time point
Chain of Cys242 in human PIK3CA (157-299) (P42336 157-299): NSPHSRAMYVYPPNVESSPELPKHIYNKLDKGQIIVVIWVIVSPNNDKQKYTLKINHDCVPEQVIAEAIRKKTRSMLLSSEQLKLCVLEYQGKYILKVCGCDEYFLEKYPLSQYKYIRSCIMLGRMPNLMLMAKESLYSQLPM
How it was run: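 PIK3CA (157-299) at 3.33 μM or 1 μM in 20 mM HEPES, 150 mM NaCl, 2 mM MgCl2, pH 7.3 was incubated with compound (from 10 mM DMSO stocks) in the dark at room temperature for 15 min, 30 min, 2 h or 4 h. Linear-mode MALDI-TOF peak heights gave percent modification.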

pAKT in BT474 cells = experiment: Cell-based pAKT HTRF assay in BT474 cells; settings: BT474 cells, 4 hr incubation, read-out: pAKT inhibition IC50 in BT474 cells
How it was run: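 The HTRF signal (excitation 320 nm, emission 615 nm) came from d2/Eu Cryptate antibodies added to lysates and incubated 4–24 h at room temperature. Those lysates were taken from cells treated for 4 hr with compound, top concentration 3 μM, in 0.25% DMSO.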

[2] = 3.33 μM protein target, 1:7.5 protein to compound ratio (compounds 1-852)
[3] = 1 μM protein target, 1:5 protein to compound ratio (compounds 853-1279)
[4] = Homo sapiens, BT-474, Compounds 10-999

SMILES	% of modification [1, 2]	IC50 (pAKT in BT474 cells; Compounds 10-999)	% of modification [1, 3]	IC50 (pAKT in BT474 cells; Compounds 1000-1279)	IC50 (pAKT in BT474 cells; [4])
C=CC(=O)N1CC[C@H](n2cc(-c3nc(-c4cnn(C)c4)c4ccsc4c3-c3c(F)cc(F)cc3OCCOC)cn2)C1 [Compound 368]	A (percent of modification of PIK3CA protein ≥75%)	100 to 1000 nM	–	–	–
C=CC(=O)N1CCn2nc(-c3nc(-c4ccc5c(c4)CN(C)C(=O)C5)c4ccsc4c3-c3c(F)cc(F)cc3OCCOC)cc2[C@@H]1C [Compound 975]	–	< 100 nM	D (percent of modification <25%)	–	–
C=CC(=O)N1CCn2nc(-c3nc(-c4cnc5c(c4)CNC5=O)c4ccsc4c3-c3c(F)cc(F)cc3OCCO)cc2C1C (stereo not shown) [Compound 961]	–	100 to 1000 nM	A (percent of modification of PIK3CA protein ≥75%)	–	–
C=CC(=O)N1CCn2nc(-c3nc(-c4cnc5cnn(C)c5c4)c4ccsc4c3-c3c(F)cc(F)cc3OCCOC)cc2C1C (stereo not shown) [Compound 902]	–	< 100 nM	A (percent of modification of PIK3CA protein ≥75%)	–	–
C=CC(=O)N1Cc2cc(-c3nc(-c4cnn(C)c4)c4ccsc4c3-c3c(F)cc(F)cc3OCCOC)nn2C[C@H]1C [Compound 578]	D (percent of modification <25%)	1000 to 3000 nM	–	–	–
C=CC(=O)N1Cc2cc(-c3nc(-c4ccc5nn(C)cc5c4)c4ccsc4c3-c3c(F)cc(F)cc3OC[C@@H](C)O)nn2[C@@H](C)C1 [Compound 571, 1-((S)-2-((R)-7-(2,4-difluoro-6-((R)-2-hydroxypropoxy)phenyl)-4-(2-methyl-2H-indazol-5-yl)thieno[3,2-c]pyridin-6-yl)-7-methyl-6,7-dihydropyrazolo[1,5-a]pyrazin-5(4H)-yl)prop-2-en-1-one]	D (percent of modification <25%)	< 100 nM	–	–	–
C=C(F)C(=O)N1CCn2nc(-c3nc(-c4ccc5c(cnn5C)c4)c4ccsc4c3-c3c(F)cc(F)cc3OCCOC)cc2[C@H]1C [Compound 1226]	–	–	D (percent of modification <25%)	100 to 1000 nM	–
C=CC(=O)N1CCn2nc(-c3nc(-c4ccc5c(c4)[nH]c(=O)n5C)c4ccsc4c3-c3c(F)cc(F)cc3OCCOC)cc2C1C (stereo not shown) [Compound 1092]	–	–	A (percent of modification of PIK3CA protein ≥75%)	< 100 nM	–
C=CC(=O)N1Cc2cc(-c3nc(-c4ccc5nc(C)oc5c4)c4ccsc4c3-c3c(F)cc(F)cc3OCCOC)nn2CC1C (stereo not shown) [Compound 497]	A (percent of modification of PIK3CA protein ≥75%)	< 100 nM	–	–	–
C=CC(=O)N1CC[C@H](n2cc(-c3nc(-c4ccc5c(c4)CNC5=O)c4ccsc4c3-c3ccc(F)cc3OC(C)C)cn2)C1 [Compound 328]	A (percent of modification of PIK3CA protein ≥75%)	< 100 nM	–	–	–
C=CC(=O)N1CCn2nc(-c3nc(-c4ccc5c(c4)CCNC5=O)c4ccsc4c3-c3c(F)cc(F)cc3OCCO)cc2[C@H]1C [Compound 876, 6-((S)-6-((R)-5-acryloyl-4-methyl-4,5,6,7-tetrahydropyrazolo[1,5-a]pyrazin-2-yl)-7-(2,4-difluoro-6-(2-hydroxyethoxy)phenyl)thieno[3,2-c]pyridin-4-yl)-3,4-dihydroisoquinolin-1(2H)-one]	–	–	A (percent of modification of PIK3CA protein ≥75%)	–	< 100 nM
C=CC(=O)N1CCc2cnc(-c3nc(-c4ccc5c(c4)CNC5=O)c4ccsc4c3-c3c(F)cc(F)cc3OC(C)C)cc2C1 [Compound 453, 5-[7-(2,4-difluoro-6-isopropoxy-phenyl)-6-(6-prop-2-enoyl-7,8-dihydro-5H-2,6-naphthyridin-3-yl)thieno[3,2-c]pyridin-4-yl]isoindolin-1-one]	A (percent of modification of PIK3CA protein ≥75%)	–	–	–	< 100 nM
C=CC(=O)N1CCc2ccc(-c3nc(-c4cccc(OCCN(C)C)c4)c4ccsc4c3-c3c(F)cc(F)cc3OCCOC)cc2C1 [Compound 1184]	–	–	A (percent of modification of PIK3CA protein ≥75%)	100 to 1000 nM	–
C=CC(=O)N1CCn2nc(-c3nc(-c4cnn(C5CN(C)C5)c4)c4ccsc4c3-c3c(F)cc(F)cc3OCC(C)O)cc2C1C (stereo not shown) [Compound 992]	–	< 100 nM	A (percent of modification of PIK3CA protein ≥75%)	–	–
C=CC(=O)N1CCn2nc(-c3nc(-c4cnc5c(c4)CN(C(C)C)CC5)c4ccsc4c3-c3c(F)cc(F)cc3OC)cc2[C@H]1C (single isomer, unassigned) [Compound 1148]	–	–	A (percent of modification of PIK3CA protein ≥75%)	< 100 nM	–
C=CC(=O)N1CCn2nc(-c3nc(-c4ccc(OCCN5CC(F)(F)C5)cc4)c4ccsc4c3-c3c(F)cc(F)cc3OCCOC)cc2C1C (stereo not shown) [Compound 1062]	–	–	A (percent of modification of PIK3CA protein ≥75%)	< 100 nM	–

SMILES	% of modification [1, 2]	IC50 (pAKT in BT474 cells; Compounds 10-999)	% of modification [1, 3]	IC50 (pAKT in BT474 cells; Compounds 1000-1279)	IC50 (pAKT in BT474 cells; [4])
C=CC(=O)N1Cc2cc(-c3nc(-c4cnn(C)c4)c4ccsc4c3-c3c(F)cc(F)cc3OC[C@@H](C)O)nn2[C@@H](C)C1 [Compound 582]	A (percent of modification of PIK3CA protein ≥75%)	< 100 nM	–	–	–
C=CC(=O)N1Cc2cc(-c3nc(-c4ccc5c(c4)CNC5=O)c4ccsc4c3-c3c(F)cc(F)cc3OC)nn2C(C)C1 (stereo not shown) [Compound 910]	–	100 to 1000 nM	B (50%<percent of modification <75%)	–	–
C=C(F)C(=O)N1CCn2nc(-c3nc(-c4cnn(C)c4)c4ccsc4c3-c3ccc(F)cc3OC(C)C)cc2C1 [Compound 295]	B (50%<percent of modification <75%)	100 to 1000 nM	–	–	–
C=CC(=O)N1CCc2cc(-c3nc(-c4cnc5c(c4)CNC(=O)C5)c4ccsc4c3-c3c(F)cc(F)cc3OCCOC)nn2CC1 [Compound 1005]	–	–	D (percent of modification <25%)	> 1000 nM	–
C=CC(=O)N1Cc2cc(-c3nc(-c4ccc5cn(C)nc5c4)c4ccsc4c3-c3c(F)cc(F)cc3OC)nn2C[C@H]1C [Compound 844]	A (percent of modification of PIK3CA protein ≥75%)	< 100 nM	–	–	–
C=CC(=O)N1CCc2cc(-c3nc(-c4ccc5c(c4)C(=O)NC5)c4ccsc4c3-c3c(F)cc(F)cc3OCCOC)nn2CC1 [Compound 1025]	–	–	A (percent of modification of PIK3CA protein ≥75%)	< 100 nM	–
C=CC(=O)N1CCc2ncc(-c3nc(-c4ccc5c(c4)CCNC5)c4c(c3-c3ccc(F)cc3OCCOC)CCC4)cc2C1 [Compound 88]	A (percent of modification of PIK3CA protein ≥75%)	< 100 nM	–	–	–
C=CC(=O)N1CCc2nc(-c3nc(-c4ccc5c(c4)CCNC5)c4ccsc4c3-c3c(F)cc(F)cc3OCC)sc2C1 [Compound 430]	A (percent of modification of PIK3CA protein ≥75%)	100 to 1000 nM	–	–	–
C=CC(=O)N1CC[C@H](n2cc(-c3nc(-c4cnn(C)c4)c4ccsc4c3-c3ccc(F)cc3OCC3CCNC(=O)C3)ccc2=O)C1 (stereo partly shown) [Compound 213]	A (percent of modification of PIK3CA protein ≥75%)	100 to 1000 nM	–	–	–
C=CC(=O)N1CC[C@@H](n2cc(-c3nc(-c4ccc(=O)n(C)c4)c4ccsc4c3-c3c(F)cc(F)cc3OC(C)C)cn2)C1 [Compound 389]	A (percent of modification of PIK3CA protein ≥75%)	< 100 nM	–	–	–
C=CC(=O)N1CC(n2cc(-c3nc(-c4cnn(CC(F)F)c4)c4ccsc4c3-c3ccc(F)cc3OCCOC)cn2)C1 [Compound 232]	A (percent of modification of PIK3CA protein ≥75%)	< 100 nM	–	–	–
C=CC(=O)N1CCn2nc(-c3nc(-c4ccc5c(c4)c(F)nn5C)c4ccsc4c3-c3c(F)cc(F)cc3OCCOC)cc2[C@H]1C [Compound 1165]	–	–	A (percent of modification of PIK3CA protein ≥75%)	< 100 nM	–
C=CC(=O)N1CCn2nc(-c3nc(-c4ccc5cnn(C)c(=O)c5c4)c4ccsc4c3-c3c(F)cc(F)cc3OCCO)cc2[C@H]1C [Compound 899]	–	< 100 nM	A (percent of modification of PIK3CA protein ≥75%)	–	–
C=CC(=O)N1CCc2nc(-c3nc(-c4cnn(CC(C)(C)O)c4)c4ccsc4c3-c3c(F)cc(F)cc3OC(C)C)sc2C1 [Compound 344]	A (percent of modification of PIK3CA protein ≥75%)	< 100 nM	–	–	–
C=CC(=O)N1CC(n2cc(-c3nc(C4=CCN(C(C)=O)CC4)c4ccsc4c3-c3ccc(F)cc3OC)cn2)C1 [Compound 298]	A (percent of modification of PIK3CA protein ≥75%)	100 to 1000 nM	–	–	–
C=CC(=O)N1CCn2nc(-c3nc(-c4cncc(C#N)c4)c4ccsc4c3-c3ccc(F)cc3OCCOC)cc2C1 [Compound 202]	A (percent of modification of PIK3CA protein ≥75%)	< 100 nM	–	–	–
